US5747538A, “Use of ginsenoside R0 or a plant extract containing same to promote collagen synthesis” (priority 1994, dated 1998)
Like-named read-outs stand apart in the source and are kept apart here.

Assays:
collagen I = assay: ELISA measurement of collagen I synthesis (collagen I secreted into the medium) in fibroblast culture, 48 h; format: cell-based, human; conditions: for ng collagen I/10^4 cells/48 h: mean±SD, control 2004 ± 132; for ng coll. I/10,000 HF/48 h: control (Asc. 25 μM + DMSO 0.1%) 2466 ± 289
Protocol: An ELISA method is used to measure collagen I synthesis, with and without treatment, on a culture of fibroblasts originating from a face lift performed on a person.
a.1) Fibroblast cultures:
The fibroblasts are cultivated by the explant method up to the point of confluence, at 37° C., in a medium consisting of a mixture of E199-C medium and 10% fetal calf serum, in a humidity-saturated atmosphere containing 5% of CO2.
Then, after detachment with an isotonic solution containing 0.1% of trypsin and 0.02% of EDTA, buffered to pH 7.2, the cells are inoculated into 96-well microplates (FALCON) at a rate of 10^4 cells per well in an E199-C medium containing 2% of serum.
After 24 h this medium is replaced, for 48 h of incubation, with the same medium without serum and containing 25 μM sodium ascorbate (incubation medium), with or without the test products. The products, solubilized in DMSO, are added to the culture medium at different concentrations.
a.2) Assay of collagen I:
The amount of collagen I secreted into the medium after 48 h of incubation with or without the products was determined by means of an ELISA (Enzyme-Linked Immuno Sorbent Assay) test.
The incubation medium is collected and transferred to the wells of a microtiter plate (Nunc Immunoplate) containing protease inhibitors. Incubation for 24 h at 4° C. allows the collagen to adhere to the plastic. The plates are then rinsed with PBS (Phosphate Buffered Saline).
After 24 h of incubation at 4° C. with serum albumin to prevent non-specific antibody-plastic binding, anti-human collagen I rabbit antibodies (Institut Pasteur, Lyon, France) are added over 1.5 h at 22° C. After rinsing with PBS, the bound antibodies are disclosed with anti-rabbit IgG goat antibodies (INTERCHIM, Montlugon, France) conjugated with an alkaline phosphatase, which, in the presence of paranitrophenyl phosphate, will produce a paranitrophenol absorbing at 405 nm.
The optical densities obtained are converted to nanograms of collagen using a calibration curve established under the same experimental conditions with purified human collagen I (Institut Jacques Boy, France).
a.3) Statistical interpretation:
The amounts of collagen (mean±standard deviation) secreted by the treated and untreated cells are compared by means of a Student t test. The significance level is taken as 0.05.
b.1) The protocol described above is applied in order to study the effect of the concentration of ginsenoside R0 on the stimulation of collagen I synthesis.
Table 1 gives the results obtained with compositions respectively containing 0, 1, 2.5 and 10 μg of ginsenoside R0 per ml.

collagen III = assay: ELISA measurement of collagen III synthesis in fibroblast culture, 72 h; format: cell-based; conditions: Homo sapiens, read-out: stimulation of synthesis of collagen III
Protocol: The protocol is the same as that described with collagen I except that the ELISA is directed against collagen III (human) and the culture treatment time is 72 h instead of the 48 h with collagen I.

CC1(C)CC[C@]2(C(=O)O[C@@H]3O[C@H](CO)[C@@H](O)[C@H](O)[C@H]3O)CC[C@]3(C)C(=CC[C@@H]4[C@@]5(C)CC[C@H](O[C@@H]6O[C@H](C(=O)O)[C@@H](O)[C@H](O)[C@H]6O[C@@H]6O[C@H](CO)[C@@H](O)[C@H](O)[C@H]6O)C(C)(C)[C@@H]5CC[C@]43C)[C@@H]2C1 [ginsenoside R0]
activation at 1 µg/mL (collagen I; Homo sapiens, Fibroblast, 48 h, Table 1, 1 μg/ml, S: significant at the 0.05 level, read-out: Stimulation of synthesis (collagen I)): 8%
activation at 2.5 µg/mL (collagen I; Homo sapiens, Fibroblast, 48 h, Table 1, 2.5 μg/ml, S: significant at the 0.05 level, read-out: Stimulation of synthesis (collagen I)): 29%
activation at 10 µg/mL (collagen I; Homo sapiens, Fibroblast, 48 h, Table 1, 10 μg/ml, S: significant at the 0.05 level, read-out: Stimulation of synthesis (collagen I)): 44%
activation at 1 µg/mL (collagen I; Homo sapiens, Fibroblast, 48 h, Table 2, 1 μg/ml, Example 1 S (p = 0.021), Example 2 S (p = 0.0006), ginsenoside R0 NS, read-out: % stimulation/control (collagen I)): 1%
activation at 1.5 µg/mL (collagen I; Homo sapiens, Fibroblast, 48 h, Table 2, 1.5 μg/ml, S (p = 0.024), read-out: % stimulation/control (collagen I)): 43%
activation at 10 µg/mL (collagen I; Homo sapiens, Fibroblast, 48 h, Table 2, 10 μg/ml, Example 1 S (p = 0.003), Example 2 S (p = 0.0006), ginsenoside R0 S (p = 0.002), read-out: % stimulation/control (collagen I)): 66%
ng collagen I/10^4 cells/48 h (collagen I; Table 1, 1 μg/ml): 2172 ± 88 ng collagen I/10^4 cells/48 h
ng collagen I/10^4 cells/48 h (collagen I; Table 1, 2.5 μg/ml): 2599 ± 163 ng collagen I/10^4 cells/48 h
ng collagen I/10^4 cells/48 h (collagen I; Table 1, 10 μg/ml): 2889 ± 74 ng collagen I/10^4 cells/48 h
ng coll. I/10,000 HF/48 h (collagen I; Table 2, 1 μg/ml): 2482 ± 276 ng coll. I/10,000 HF/48 h
ng coll. I/10,000 HF/48 h (collagen I; Table 2, 1.5 μg/ml): 3529 ± 516 ng coll. I/10,000 HF/48 h
ng coll. I/10,000 HF/48 h (collagen I; Table 2, 10 μg/ml): 4099 ± 480 ng coll. I/10,000 HF/48 h
activation at 2.5 µg/mL (collagen III; 2.5 μg/ml): 33%
activation at 10 µg/mL (collagen III; 10 μg/ml): 81%
